The record followed here is US20230340011A1 (Asteroid Therapeutics, priority 2022, published 2023).

Where only a bound is given, the exact number is not on record here.

One test addresses SREBP-2 (Homo sapiens (Human), UniProt Q12772). Kind of test: In vitro assay SREBP-2: PathHunter U2OS SREBP-2 Nuclear Translocation Cell Line, U18666A-stimulated. The class given is cell-based. The settings on record: PathHunter U2OS SREBP-2 nuclear translocation cells, U18666A 10 μM, overnight (16 hours).
The target in another test is LXRβ (Homo sapiens (Human), UniProt P55055). Kind of test: In vitro assay LXRβ: PathHunter NHR CHO cells, LXRβ / Steroid Receptor Co-activator Peptide enzyme fragment complementation. It is filed as cell-based. As to conditions: PathHunter NHR CHO cells, full-length human LXRβ and SRCP, chemiluminescent signal; read-out: LXRβ PPI. The gist of the method:
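Enzyme fragment complementation read-out: CHO cells stably expressing ProLink-tagged full-length human LXRβ plus nuclear enzyme acceptor–SRCP fusion, seeded and held overnight at 37° C. Medium with charcoal-dextran filtered serum; final vehicle 1%. Chemiluminescence measured after signal generation.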

Chain of LXRβ (P55055 whole entry, the tested form may be a part): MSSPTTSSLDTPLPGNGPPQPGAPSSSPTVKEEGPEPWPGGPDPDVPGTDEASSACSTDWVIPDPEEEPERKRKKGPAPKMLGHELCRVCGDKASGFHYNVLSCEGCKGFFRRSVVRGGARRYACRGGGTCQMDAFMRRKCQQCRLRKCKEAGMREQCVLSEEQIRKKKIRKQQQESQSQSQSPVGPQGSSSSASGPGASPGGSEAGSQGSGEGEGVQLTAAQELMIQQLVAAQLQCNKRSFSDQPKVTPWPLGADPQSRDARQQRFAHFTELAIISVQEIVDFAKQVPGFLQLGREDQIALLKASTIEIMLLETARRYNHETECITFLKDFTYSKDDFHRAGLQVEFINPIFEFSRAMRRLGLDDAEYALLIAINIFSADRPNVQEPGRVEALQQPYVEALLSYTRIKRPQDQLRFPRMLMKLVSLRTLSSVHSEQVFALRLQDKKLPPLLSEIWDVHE

The IC50 is the concentration at which inhibition is half-maximal. In the case of `C[C@H](CCC(=O)N1CCC[C@@H](O)C1)[C@H]1CC[C@H]2[C@@H]3CC=C4C[C@@H](O)CC[C@]4(C)[C@H]3CC[C@]12C` [Example 104, (R)-4-((3S,8S,9S,10R,13R,14S,17R)-3-hydroxy-10,13-dimethyl-2,3,4,7,8,9,10,11,12,13,14,15,16,17-tetradecahydro-1H-cyclopenta[a]phenanthren-17-yl)-1-((R)-3-hydroxypiperidin-1-yl) pentan-1-one], the IC50 on SREBP-2 is < 250 nM. Also, the EC50 at LXRβ was in the range of 250 to 1000 nM.

For the compound `C[C@H](CCC(=O)N1CCOc2cccnc21)[C@H]1CC[C@H]2[C@@H]3CC=C4C[C@@H](O)CC[C@]4(C)[C@H]3CC[C@]12C` [Example 626, (4R)-4-[(1R,3aS,3bS,7S,9aR,9bS,11aR)-7-hydroxy-9a,11a-dimethyl-1H,2H,3H,3aH,3bH,4H,6H,7H,8H,9H,9aH,9bH,10H,11H,11aH-cyclopenta[a]phenanthren-1-yl]-1-{2H,3H,4H-pyrido[3,2-b][1,4]oxazin-4-yl}pentan-1-one], the concentration for half-maximal inhibition (IC50) against SREBP-2 was < 250 nM. Moreover, the EC50 at LXRβ lay in the range of 1000 to 10000 nM.

In the case of `Cc1noc(C(=O)N2CCN(C(=O)CC[C@@H](C)[C@H]3CC[C@H]4[C@@H]5CC=C6C[C@@H](O)CC[C@]6(C)[C@H]5CC[C@]34C)CC2)n1` [Example 292, (R)-4-((3S,8S,9S,10R,13R,14S,17R)-3-hydroxy-10,13-dimethyl-2,3,4,7,8,9,10,11,12,13,14,15,16,17-tetradecahydro-1H-cyclopenta[a]phenanthren-17-yl)-1-(4-(3-methyl-1,2,4-oxadiazole-5-carbonyl)piperazin-1-yl)pentan-1-one], the IC50 at SREBP-2 is < 250 nM. Also, the EC50 at LXRβ is > 10000 nM.

For the compound `C[C@H](CCC(=O)N1CCN(C(=O)c2ccncc2)C[C@@H]1C)[C@H]1CC[C@H]2[C@@H]3CC=C4C[C@@H](O)CC[C@]4(C)[C@H]3CC[C@]12C` [Example 590, (R)-4-((3S,8S,9S,10R,13R,14S,17R)-3-hydroxy-10,13-dimethyl-2,3,4,7,8,9,10,11,12,13,14,15,16,17-tetradecahydro-1H-cyclopenta[a]phenanthren-17-yl)-1-((S)-4-isonicotinoyl-2-methylpiperazin-1-yl)pentan-1-one], the IC50 against SREBP-2 is < 250 nM. Moreover, the EC50 on LXRβ was > 10000 nM.

Consider `C[C@@H]1CCN(C(=O)N2CCN(C(=O)CC[C@@H](C)[C@H]3CC[C@H]4[C@@H]5CC=C6C[C@@H](O)CC[C@]6(C)[C@H]5CC[C@]34C)CC2)C1` [Example 667, (R)-4-((3S,8S,9S,10R,13R,14S,17R)-3-hydroxy-10,13-dimethyl-2,3,4,7,8,9,10,11,12,13,14,15,16,17-tetradecahydro-1H-cyclopenta[a]phenanthren-17-yl)-1-(4-((R)-3-methylpyrrolidine-1-carbonyl)piperazin-1-yl)pentan-1-one], for which, on SREBP-2, the concentration for half-maximal inhibition (IC50) was < 250 nM. For the same compound, the EC50 on LXRβ was > 10000 nM.

For `C[C@H](CCC(=O)N1CCN(C(=O)C2CC2)C[C@@H]1C)[C@H]1CC[C@H]2[C@@H]3CC=C4C[C@@H](O)CC[C@]4(C)[C@H]3CC[C@]12C` [Example 651, (R)-1-((S)-4-(cyclopropanecarbonyl)-2-methylpiperazin-1-yl)-4-((3S,8S,9S,10R,13R,14S,17R)-3-hydroxy-10,13-dimethyl-2,3,4,7,8,9,10,11,12,13,14,15,16,17-tetradecahydro-1H-cyclopenta[a]phenanthren-17-yl)pentan-1-one], the IC50 against SREBP-2 is < 250 nM. For the same compound, the EC50 at LXRβ is > 10000 nM.

Consider `C[C@H](CCC(=O)N1CCC[C@@H](c2ccccc2)C1)[C@H]1CC[C@H]2[C@@H]3CC=C4C[C@@H](O)CC[C@]4(C)[C@H]3CC[C@]12C` [Example 76, (R)-4-((3S,8S,9S,10R,13R,14S,17R)-3-hydroxy-10,13-dimethyl-2,3,4,7,8,9,10,11,12,13,14,15,16,17-tetradecahydro-1H-cyclopenta[a]phenanthren-17-yl)-1-((S)-3-phenylpiperidin-1-yl)pentan-1-one], for which the IC50 against SREBP-2 is < 250 nM. Also, the EC50 at LXRβ fell in the range of 1000 to 10000 nM.
